Key:
[1] = system: Proto-oncogene tyrosine-protein kinase receptor Ret (Homo sapiens), P07949 [M918T]; conditions: Compound concentration 1000.0 nM
[2] = molecular target: Cyclin-dependent kinase 8 (Homo sapiens) (UniProt P49336); conditions: Compound concentration 1000.0 nM
[3] = molecular target: Serine/threonine-protein kinase Nek9 (Homo sapiens) (UniProt Q8TD19); conditions: Compound concentration 1000.0 nM
[4] = molecular target: NUAK family SNF1-like kinase 1 (Homo sapiens) (UniProt O60285); conditions: Compound concentration 1000.0 nM
[5] = system: Tyrosine-protein kinase ABL1 (Homo sapiens), P00519 [E255K]; conditions: Compound concentration 1000.0 nM
Chain of Tyrosine-protein kinase ABL1 (Homo sapiens), P00519 [E255K] (P00519 whole entry E255K): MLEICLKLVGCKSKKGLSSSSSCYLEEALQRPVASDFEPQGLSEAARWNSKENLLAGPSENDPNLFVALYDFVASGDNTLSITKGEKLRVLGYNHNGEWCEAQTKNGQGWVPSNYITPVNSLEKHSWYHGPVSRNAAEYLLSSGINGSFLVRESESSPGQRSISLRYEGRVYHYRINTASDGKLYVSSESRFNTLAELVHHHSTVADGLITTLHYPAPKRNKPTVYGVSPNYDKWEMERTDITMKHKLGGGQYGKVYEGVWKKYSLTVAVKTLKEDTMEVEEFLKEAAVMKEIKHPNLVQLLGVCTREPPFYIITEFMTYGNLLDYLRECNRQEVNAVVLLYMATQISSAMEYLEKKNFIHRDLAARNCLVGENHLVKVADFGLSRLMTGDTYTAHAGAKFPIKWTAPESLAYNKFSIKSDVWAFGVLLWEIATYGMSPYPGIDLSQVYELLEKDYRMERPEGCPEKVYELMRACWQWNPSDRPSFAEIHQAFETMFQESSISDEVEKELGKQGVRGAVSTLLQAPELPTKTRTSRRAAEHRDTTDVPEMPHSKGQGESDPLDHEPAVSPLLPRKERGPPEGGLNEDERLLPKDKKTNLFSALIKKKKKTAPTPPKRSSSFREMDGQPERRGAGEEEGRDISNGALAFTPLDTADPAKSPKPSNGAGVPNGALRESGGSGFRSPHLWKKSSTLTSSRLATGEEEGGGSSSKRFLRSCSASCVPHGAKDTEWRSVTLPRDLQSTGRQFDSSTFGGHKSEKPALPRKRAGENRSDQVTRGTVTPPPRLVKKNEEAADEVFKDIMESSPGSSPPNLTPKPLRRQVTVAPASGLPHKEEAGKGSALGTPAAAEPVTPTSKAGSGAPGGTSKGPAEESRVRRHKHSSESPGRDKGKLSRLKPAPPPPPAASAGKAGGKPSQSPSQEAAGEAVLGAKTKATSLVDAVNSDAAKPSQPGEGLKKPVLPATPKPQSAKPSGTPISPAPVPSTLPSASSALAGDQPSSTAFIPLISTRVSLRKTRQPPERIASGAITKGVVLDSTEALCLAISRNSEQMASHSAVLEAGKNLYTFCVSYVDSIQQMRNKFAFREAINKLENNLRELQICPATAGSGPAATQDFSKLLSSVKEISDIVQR

[6] = molecular target: Alpha-2C adrenergic receptor (Homo sapiens) (UniProt P18825); conditions: Compound concentration 10.0 uM
[7] = molecular target: Mitogen-activated protein kinase 6 (Homo sapiens) (UniProt Q16659); conditions: Compound concentration 1000.0 nM
[8] = molecular target: Ribosomal protein S6 kinase alpha-1 (Homo sapiens) (UniProt Q15418); conditions: Compound concentration 1000.0 nM
[9] = molecular target: Serine/threonine-protein kinase Sgk2 (Homo sapiens) (UniProt Q9HBY8); conditions: Compound concentration 1000.0 nM
[10] = molecular target: T1, Muscarinic acetylcholine receptor M1 (Homo sapiens) (UniProt P11229); conditions: Compound concentration 10.0 uM
T1 sequence (whole entry): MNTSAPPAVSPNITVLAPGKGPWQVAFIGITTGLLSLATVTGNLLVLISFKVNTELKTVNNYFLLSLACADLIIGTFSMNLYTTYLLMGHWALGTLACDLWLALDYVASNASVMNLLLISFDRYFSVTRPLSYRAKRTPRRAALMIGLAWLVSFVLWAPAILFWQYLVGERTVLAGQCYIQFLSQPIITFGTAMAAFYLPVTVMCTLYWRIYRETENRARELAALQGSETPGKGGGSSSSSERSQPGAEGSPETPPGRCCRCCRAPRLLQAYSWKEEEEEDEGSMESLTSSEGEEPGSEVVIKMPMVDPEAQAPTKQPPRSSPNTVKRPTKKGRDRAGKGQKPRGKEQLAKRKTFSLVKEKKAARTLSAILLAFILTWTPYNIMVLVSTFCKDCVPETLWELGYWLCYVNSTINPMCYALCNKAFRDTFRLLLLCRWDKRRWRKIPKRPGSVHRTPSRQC

[11] = molecular target: Beta-adrenergic receptor kinase 1 (Homo sapiens) (UniProt P25098); conditions: Compound concentration 1000.0 nM
[12] = system: Proto-oncogene tyrosine-protein kinase receptor Ret (Homo sapiens), P07949 [V804L]; conditions: Compound concentration 1000.0 nM
Chain of Proto-oncogene tyrosine-protein kinase receptor Ret (Homo sapiens), P07949 [V804L] (P07949 whole entry V804L): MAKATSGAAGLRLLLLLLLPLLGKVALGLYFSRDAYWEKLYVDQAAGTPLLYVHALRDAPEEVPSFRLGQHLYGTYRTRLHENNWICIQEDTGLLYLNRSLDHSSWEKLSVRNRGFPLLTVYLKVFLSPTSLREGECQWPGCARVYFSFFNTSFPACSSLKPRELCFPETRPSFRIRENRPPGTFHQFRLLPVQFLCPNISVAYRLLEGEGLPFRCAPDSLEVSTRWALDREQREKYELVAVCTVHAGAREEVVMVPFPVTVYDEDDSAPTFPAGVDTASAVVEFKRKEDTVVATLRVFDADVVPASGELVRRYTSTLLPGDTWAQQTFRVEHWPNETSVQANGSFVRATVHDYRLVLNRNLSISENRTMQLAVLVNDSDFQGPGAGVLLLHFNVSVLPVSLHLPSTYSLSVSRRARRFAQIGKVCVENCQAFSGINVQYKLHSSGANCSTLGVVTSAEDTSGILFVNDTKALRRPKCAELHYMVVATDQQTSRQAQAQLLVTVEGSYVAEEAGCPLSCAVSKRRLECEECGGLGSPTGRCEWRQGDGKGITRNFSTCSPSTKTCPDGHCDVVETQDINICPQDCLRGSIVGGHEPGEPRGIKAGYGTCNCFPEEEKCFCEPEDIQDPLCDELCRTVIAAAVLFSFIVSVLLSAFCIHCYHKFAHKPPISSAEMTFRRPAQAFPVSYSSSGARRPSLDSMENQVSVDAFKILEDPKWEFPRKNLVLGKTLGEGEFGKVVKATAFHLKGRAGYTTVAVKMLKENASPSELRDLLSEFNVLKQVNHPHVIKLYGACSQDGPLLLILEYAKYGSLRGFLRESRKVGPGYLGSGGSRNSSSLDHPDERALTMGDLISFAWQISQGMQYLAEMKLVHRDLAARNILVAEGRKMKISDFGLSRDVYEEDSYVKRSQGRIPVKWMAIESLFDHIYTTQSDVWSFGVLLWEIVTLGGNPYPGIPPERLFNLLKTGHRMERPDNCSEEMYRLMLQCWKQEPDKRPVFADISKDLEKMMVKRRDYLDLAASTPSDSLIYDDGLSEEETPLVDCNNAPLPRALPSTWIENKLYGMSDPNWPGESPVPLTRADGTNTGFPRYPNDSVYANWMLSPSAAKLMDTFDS

[13] = molecular target: Cyclin-dependent kinase 4 (Homo sapiens) (UniProt P11802); conditions: Compound concentration 1000.0 nM
[14] = system: Receptor-type tyrosine-protein kinase FLT3 (Homo sapiens), P36888 [D835Y]; conditions: Compound concentration 1000.0 nM
[15] = molecular target: 3-phosphoinositide-dependent protein kinase 1 (Homo sapiens) (UniProt O15530); conditions: Compound concentration 1000.0 nM
[16] = molecular target: cGMP-dependent protein kinase 2 (Homo sapiens) (UniProt Q13237); conditions: Compound concentration 1000.0 nM
Chain of cGMP-dependent protein kinase 2 (Homo sapiens) (Q13237 whole entry): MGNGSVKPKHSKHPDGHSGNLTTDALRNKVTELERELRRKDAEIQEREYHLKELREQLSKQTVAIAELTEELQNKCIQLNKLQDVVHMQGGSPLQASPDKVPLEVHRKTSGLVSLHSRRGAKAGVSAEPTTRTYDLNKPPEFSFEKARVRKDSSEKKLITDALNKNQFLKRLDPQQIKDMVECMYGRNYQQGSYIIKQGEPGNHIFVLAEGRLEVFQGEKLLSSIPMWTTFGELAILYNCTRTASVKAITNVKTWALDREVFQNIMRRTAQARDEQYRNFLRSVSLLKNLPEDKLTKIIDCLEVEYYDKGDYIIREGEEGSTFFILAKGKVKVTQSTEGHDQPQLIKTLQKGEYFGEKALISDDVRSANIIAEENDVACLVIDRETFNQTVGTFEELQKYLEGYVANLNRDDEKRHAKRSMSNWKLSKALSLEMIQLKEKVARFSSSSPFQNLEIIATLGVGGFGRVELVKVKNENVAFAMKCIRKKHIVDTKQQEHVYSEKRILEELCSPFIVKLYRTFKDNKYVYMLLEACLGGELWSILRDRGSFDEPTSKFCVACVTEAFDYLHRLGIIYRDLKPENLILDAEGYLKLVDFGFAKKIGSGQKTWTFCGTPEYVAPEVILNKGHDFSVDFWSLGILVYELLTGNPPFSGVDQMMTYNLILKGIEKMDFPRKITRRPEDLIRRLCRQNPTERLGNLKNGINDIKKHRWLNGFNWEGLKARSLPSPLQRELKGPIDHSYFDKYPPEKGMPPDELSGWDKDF

[17] = molecular target: Cyclin-dependent kinase 16 (Homo sapiens) (UniProt Q00536); conditions: Compound concentration 1000.0 nM
[18] = molecular target: Dual specificity mitogen-activated protein kinase kinase 7 (Homo sapiens) (UniProt O14733); conditions: Compound concentration 1000.0 nM
[19] = molecular target: Serine/threonine-protein kinase 35 (Homo sapiens) (UniProt Q8TDR2); conditions: Compound concentration 1000.0 nM
[20] = system: Epidermal growth factor receptor (Homo sapiens), P00533 [UNDEFINED MUTATION]; conditions: Compound concentration 1000.0 nM
[21] = molecular target: Protein-tyrosine kinase 2-beta (Homo sapiens) (UniProt Q14289); conditions: Compound concentration 1000.0 nM
[22] = molecular target: Focal adhesion kinase 1 (Homo sapiens) (UniProt Q05397); conditions: Compound concentration 1000.0 nM
[23] = molecular target: Myosin light chain kinase (Homo sapiens) (UniProt Q32MK0); conditions: Compound concentration 1000.0 nM
[24] = molecular target: Serine/threonine-protein kinase RIO3 (Homo sapiens) (UniProt O14730); conditions: Compound concentration 1000.0 nM
[25] = system: Receptor-type tyrosine-protein kinase FLT3 (Homo sapiens), P36888 [R834Q]; conditions: Compound concentration 1000.0 nM
[26] = molecular target: Phosphatidylinositol 5-phosphate 4-kinase type-2 gamma (Homo sapiens) (UniProt Q8TBX8); conditions: Compound concentration 1000.0 nM
[27] = molecular target: Serine/threonine-protein kinase pim-1 (Homo sapiens) (UniProt P11309); conditions: Compound concentration 1000.0 nM
[28] = molecular target: Ribosomal protein S6 kinase alpha-3 (Homo sapiens) (UniProt P51812); conditions: Compound concentration 1000.0 nM
[29] = molecular target: 5-hydroxytryptamine receptor 1B (Homo sapiens) (UniProt P28222); conditions: Compound concentration 10.0 uM
[30] = molecular target: Ephrin type-A receptor 3 (Homo sapiens) (UniProt P29320); conditions: Compound concentration 1000.0 nM
[31] = molecular target: D(3) dopamine receptor (Homo sapiens) (UniProt P35462); conditions: Compound concentration 10.0 uM
[32] = molecular target: Histamine H4 receptor (Homo sapiens) (UniProt Q9H3N8); conditions: Compound concentration 10.0 uM
[33] = molecular target: Tyrosine-protein kinase Fgr (Homo sapiens) (UniProt P09769); conditions: Compound concentration 1000.0 nM
[34] = molecular target: Calcium/calmodulin-dependent protein kinase type II subunit beta (Homo sapiens) (UniProt Q13554); conditions: Compound concentration 1000.0 nM
[35] = molecular target: Tyrosine-protein kinase JAK1 (Homo sapiens) (UniProt P23458); conditions: Compound concentration 1000.0 nM
[36] = molecular target: Muscle, skeletal receptor tyrosine-protein kinase (Homo sapiens) (UniProt O15146); conditions: Compound concentration 1000.0 nM
Chain of Muscle, skeletal receptor tyrosine-protein kinase (Homo sapiens) (O15146 whole entry): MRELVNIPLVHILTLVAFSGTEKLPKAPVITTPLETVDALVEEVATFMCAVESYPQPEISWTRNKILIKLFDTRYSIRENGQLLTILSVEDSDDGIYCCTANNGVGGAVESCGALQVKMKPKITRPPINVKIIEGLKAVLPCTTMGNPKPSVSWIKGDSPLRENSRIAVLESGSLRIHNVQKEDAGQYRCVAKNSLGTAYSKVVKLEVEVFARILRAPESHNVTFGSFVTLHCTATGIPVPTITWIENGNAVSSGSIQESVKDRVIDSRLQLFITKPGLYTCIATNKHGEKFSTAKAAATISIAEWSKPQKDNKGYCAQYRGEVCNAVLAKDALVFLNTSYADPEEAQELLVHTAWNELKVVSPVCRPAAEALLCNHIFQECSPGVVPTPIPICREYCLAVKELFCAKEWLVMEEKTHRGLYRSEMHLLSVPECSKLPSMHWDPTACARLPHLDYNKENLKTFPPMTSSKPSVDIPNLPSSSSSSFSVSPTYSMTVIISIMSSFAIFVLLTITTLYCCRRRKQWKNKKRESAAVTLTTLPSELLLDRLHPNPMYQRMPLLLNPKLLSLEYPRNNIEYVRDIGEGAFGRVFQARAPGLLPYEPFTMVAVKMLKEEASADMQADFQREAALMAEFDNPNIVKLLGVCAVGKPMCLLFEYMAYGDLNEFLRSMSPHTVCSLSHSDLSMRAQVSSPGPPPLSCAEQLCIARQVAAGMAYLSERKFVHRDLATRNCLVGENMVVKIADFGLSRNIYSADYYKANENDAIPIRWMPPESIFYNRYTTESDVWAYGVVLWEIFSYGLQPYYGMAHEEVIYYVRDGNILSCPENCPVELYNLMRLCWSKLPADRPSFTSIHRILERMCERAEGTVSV

[37] = molecular target: Mitogen-activated protein kinase kinase kinase 3 (Homo sapiens) (UniProt Q99759); conditions: Compound concentration 1000.0 nM
[38] = molecular target: Inhibitor of nuclear factor kappa-B kinase subunit beta (Homo sapiens) (UniProt O14920); conditions: Compound concentration 1000.0 nM
[39] = molecular target: D(2) dopamine receptor (Homo sapiens) (UniProt P14416); conditions: Compound concentration 10.0 uM

Chain of Serine/threonine-protein kinase Nek9 (Homo sapiens) (Q8TD19 whole entry): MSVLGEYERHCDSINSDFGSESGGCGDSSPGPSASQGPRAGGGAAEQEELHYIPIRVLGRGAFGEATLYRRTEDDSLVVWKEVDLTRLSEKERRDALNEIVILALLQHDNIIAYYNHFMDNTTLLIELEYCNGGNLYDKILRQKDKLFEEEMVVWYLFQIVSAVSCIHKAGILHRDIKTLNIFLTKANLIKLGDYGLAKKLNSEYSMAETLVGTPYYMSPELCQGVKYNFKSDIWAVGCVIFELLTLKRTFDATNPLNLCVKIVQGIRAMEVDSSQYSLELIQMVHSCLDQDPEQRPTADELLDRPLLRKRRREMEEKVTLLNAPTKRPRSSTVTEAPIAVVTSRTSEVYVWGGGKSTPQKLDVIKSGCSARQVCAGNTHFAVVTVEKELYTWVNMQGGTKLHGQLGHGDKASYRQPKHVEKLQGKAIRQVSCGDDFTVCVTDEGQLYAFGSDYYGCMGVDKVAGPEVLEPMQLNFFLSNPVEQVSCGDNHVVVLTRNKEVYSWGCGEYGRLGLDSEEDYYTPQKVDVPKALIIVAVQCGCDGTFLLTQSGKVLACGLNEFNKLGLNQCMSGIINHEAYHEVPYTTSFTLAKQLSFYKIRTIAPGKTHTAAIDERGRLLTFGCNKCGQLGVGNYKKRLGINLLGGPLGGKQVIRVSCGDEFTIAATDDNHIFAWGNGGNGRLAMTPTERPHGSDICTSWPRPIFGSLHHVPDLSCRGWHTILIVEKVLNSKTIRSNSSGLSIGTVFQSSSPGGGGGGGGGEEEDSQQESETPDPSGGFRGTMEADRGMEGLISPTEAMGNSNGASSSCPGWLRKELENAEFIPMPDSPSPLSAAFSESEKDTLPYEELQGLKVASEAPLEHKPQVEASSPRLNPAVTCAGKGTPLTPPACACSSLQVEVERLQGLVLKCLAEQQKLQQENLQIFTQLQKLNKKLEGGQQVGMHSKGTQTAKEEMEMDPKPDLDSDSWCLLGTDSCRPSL
Chain of Proto-oncogene tyrosine-protein kinase receptor Ret (Homo sapiens), P07949 [M918T] (P07949 whole entry M918T): as the sequence (P07949 whole entry V804L) above, with L804V, M918T counted along it

SMILES | residual activity [1] [%] | residual activity [2] [%] | residual activity [3] [%] | residual activity [4] [%] | residual activity [5] [%] | inhibition [6] [%] | residual activity [7] [%] | residual activity [8] [%] | residual activity [9] [%] | inhibition [10] [%] | residual activity [11] [%] | residual activity [12] [%] | residual activity [13] [%] | residual activity [14] [%] | residual activity [15] [%] | residual activity [16] [%] | residual activity [17] [%] | residual activity [18] [%] | residual activity [19] [%] | residual activity [20] [%] | other results
NS(=O)(=O)c1cc(NC(=O)Cc2ccccc2)ccc1Oc1cccc(Cl)c1 [BAY-1797] | 83 | 68 | 83 | 100 | 69 | 18.2 | 98 | 91 | 85 | 11.4 | 97 | 80 | 71 | 95 | 95 | 86 | 92 | 91 | 99 | 86 | residual activity [21]: 79%; residual activity [22]: 96%; residual activity [23]: 89%; residual activity [24]: 73%; residual activity [25]: 91%; residual activity [26]: 100%; residual activity [27]: 89%; residual activity [28]: 72%; inhibition [29]: -2.93%; residual activity [30]: 78%; inhibition [31]: 0.87%; inhibition [32]: -3.13%; residual activity [33]: 100%; residual activity [34]: 100%; residual activity [35]: 99%; residual activity [36]: 100%; residual activity [37]: 71%; residual activity [38]: 91%; inhibition [39]: -7.81%
NS(=O)(=O)c1cc(NC(=O)C2(c3ccccc3Cl)CC2)ccc1Oc1cccc(Cl)c1 [BAY-207] | 71 | 91 | 94 | 95 | 72 | 89.6 | 100 | 98 | 100 | -3.55 | 100 | 70 | 70 | 100 | 85 | 100 | 100 | 100 | 94 | 96 | residual activity [21]: 91%; residual activity [22]: 87%; residual activity [23]: 89%; residual activity [24]: 73%; residual activity [25]: 100%; residual activity [26]: 62%; residual activity [27]: 94%; residual activity [28]: 92%; inhibition [29]: 4.81%; residual activity [30]: 100%; inhibition [31]: 10.5%; inhibition [32]: 0.09%; residual activity [33]: 54%; residual activity [34]: 100%; residual activity [35]: 90%; residual activity [36]: 77%; residual activity [37]: 100%; residual activity [38]: 70%; inhibition [39]: -9.74%
